Source: patent US20240245673A1, “Papain-like protease (PLpro) inhibitors” (Pfizer Inc., priority 2022, published 2024)

Each compound was assayed against SARS-CoV-2 Papain like protease (PLpro) (Severe acute respiratory syndrome coronavirus 2 (2019-nCoV) (SARS-CoV-2), UniProt P0DTD1) (assay: Papain Like Protease (PLpro) biochemical assay with profluorogenic substrate Z-RLRGG-AMC). Details: SARS-CoV-2 PLpro 6.25 nM, 25 μM Z-RLRGG-AMC substrate, 60 minute reaction; read-out: IC50.
With `Cc1cc(CSCc2nccn2C)ccc1C(=O)N[C@H](C)c1cc(-c2cnn(C)c2)nc2ccccc12` [Example 282, (R)-2-methyl-4-((((1-methyl-1H-imidazol-2-yl)methyl)thio)methyl)-N-(1-(2-(1-methyl-1H-pyrazol-4-yl)quinolin-4-yl)ethyl)benzamide] the IC50 was 6 nM. For `CC(=O)Nc1cc([C@@H](C)NC(=O)c2ccccc2C)c2ccccc2n1` [Example 40, (R)—N-(1-(2-acetamidoquinolin-4-yl)ethyl)-2-methylbenzamide], the IC50 was 3160 nM. For `Cc1ccccc1C(=O)N[C@H](C)c1cc(-c2ccn(C)n2)nc2ccccc12` [Example 12, (R)-2-methyl-N-(1-(2-(1-methyl-1H-pyrazol-3-yl)quinolin-4-yl)ethyl)benzamide], the IC50 was 532 nM. For `Cc1ccccc1C(=O)NC(C)c1cc(-c2cnn(C)c2C)nc2ccccc12` (centres unmarked) [Example 129, N-{1-[2-(1,5-dimethyl-1H-pyrazol-4-yl)quinolin-4-yl]ethyl}-2-methylbenzamide], the IC50 was 666 nM. Compound `Cc1cc(COCc2cscn2)ccc1C(=O)NC1(c2cc(-c3cnn(C)c3)cc3nc(O)ccc23)CC1` [Example 358, N-(1-(2-hydroxy-7-(1-methyl-1H-pyrazol-4-yl)quinolin-5-yl)cyclopropyl)-2-methyl-4-((thiazol-4-ylmethoxy)methyl)benzamide] has an IC50 of less than 1 nM. With `Cc1ccccc1C(=O)N[C@H](C)c1cc(OC2CCOC2)nc2ccccc12` (stereo partly drawn) [Example 46, 2-methyl-N-((1R)-1-(2-((tetrahydrofuran-3-yl)oxy)quinolin-4-yl)ethyl)benzamide] the IC50 was 3620 nM. With `COC(=O)/C=C/C(=O)NNC(=O)CCc1ccccc1C(=O)N[C@H](C)c1cc(-c2cnn(C)c2)nc2ccccc12` [Example 63, methyl(R,E)-4-(2-(3-(2-((1-(2-(1-methyl-1H-pyrazol-4-yl)quinolin-4-yl)ethyl)carbamoyl)phenyl)propanoyl)hydrazineyl)-4-oxobut-2-enoate] the IC50 was 3 nM. Compound `COC[C@@H](OCc1cscn1)c1ccc(C(=O)N[C@H](C)c2cc(-c3cnn(C)c3)nc3ccccc23)c(C)c1` (single isomer, unassigned) [Example 332, 4-((R*)-2-methoxy-1-(thiazol-4-ylmethoxy)ethyl)-2-methyl-N-((R)-1-(2-(1-methyl-1H-pyrazol-4-yl)quinolin-4-yl)ethyl)benzamide] has an IC50 of 2 nM. Compound `Cc1cc(CC(=O)Nc2ncc[nH]2)ccc1C(=O)N[C@H](C)c1cc(-c2cnn(C)c2)nc2ccccc12` [Example 239, (R)-4-(2-((1H-imidazol-2-yl)amino)-2-oxoethyl)-2-methyl-N-(1-(2-(1-methyl-1H-pyrazol-4-yl)quinolin-4-yl)ethyl)benzamide] has an IC50 of 7 nM. `Cc1cc(CN(Cc2cscn2)S(C)(=O)=O)ccc1C(=O)N[C@H](C)c1cc(-c2cnn(C)c2)nc2ccccc12` [Example 268, (R)-2-methyl-N-(1-(2-(1-methyl-1H-pyrazol-4-yl)quinolin-4-yl)ethyl)-4-((N-(thiazol-4-ylmethyl)methylsulfonamido)methyl)benzamide] gave an IC50 of 139 nM. For `Cc1ccc(N2CC3CN(C)CC3C2)cc1C(=O)N[C@H](C)c1cc(-c2cnn(C)c2)nc2ccccc12` (stereo partly drawn) [Example 262, 2-methyl-N-((R)-1-(2-(1-methyl-1H-pyrazol-4-yl)quinolin-4-yl)ethyl)-5-(5-methylhexahydropyrrolo[3,4-c]pyrrol-2(1H)-yl)benzamide], the IC50 was 8 nM. Compound `Cc1ccc(CN)cc1C(=O)NC(C)c1cc(-n2cnnc2C(N)=O)nc2ccccc12` (centres unmarked) [Example 33, 4-(4-(1-(5-(aminomethyl)-2-methylbenzamido)ethyl)quinolin-2-yl)-4H-1,2,4-triazole-3-carboxamide] has an IC50 of 1360 nM. `COC[C@@H](OCc1cocn1)c1ccc(C(=O)NC2(c3cc(-c4cnn(C)c4)cc4ncccc34)CC2)c(C)c1` (single isomer, unassigned) [Example 355] was tested, and the IC50 was less than 1 nM. In the case of `CC(C)OC(=O)/C=C/C(=O)NNC(=O)CCc1ccccc1C(=O)N[C@H](C)c1cc(-c2cnn(C)c2)nc2ccccc12` [Example 233, isopropyl (R,E)-4-(2-(3-(2-((1-(2-(1-methyl-1H-pyrazol-4-yl)quinolin-4-yl)ethyl)carbamoyl)phenyl)propanoyl)hydrazineyl)-4-oxobut-2-enoate], the IC50 is reported as 3 nM. `Cc1cc(C(C)OCc2cscn2)ncc1C(=O)N[C@H](C)c1cc(-c2cnn(C)c2)nc2ccccc12` (stereo partly drawn) [Example 321, 4-methyl-N—((R)-1-(2-(1-methyl-1H-pyrazol-4-yl)quinolin-4-yl)ethyl)-6-(1-(thiazol-4-ylmethoxy)ethyl)nicotinamide] gave an IC50 of 3 nM. In the case of `COc1cc(-c2cc(C(C)NC(=O)c3ccccc3C)c3ccccc3n2)ccn1` (centres unmarked) [Example 109], the IC50 is reported as 280 nM. `COCC(OCc1cscn1)c1ccc(C(=O)NC2(c3cc(-c4cnn(C)c4)nc4ccccc34)CC2)c(C)c1` (single isomer, unassigned) [Example 324] was tested, and the IC50 was less than 1 nM. In the case of `Cc1cc(CNCc2cscn2)ccc1C(=O)NC(C)c1cc(-c2cnn(C)c2)cc2ccccc12` (centres unmarked) [Example 7, 2-methyl-N-(1-(3-(1-methyl-1H-pyrazol-4-yl)naphthalen-1-yl)ethyl)-4-(((thiazol-4-ylmethyl)amino)methyl)benzamide], the IC50 is reported as 13 nM. With `Cc1cc(COCc2cscn2)ccc1C(=O)NC1(c2cc(-c3cnn(C)c3)nc3ccccc23)CC1` [Example 323, 2-methyl-N-(1-(2-(1-methyl-1H-pyrazol-4-yl)quinolin-4-yl)cyclopropyl)-4-((thiazol-4-ylmethoxy)methyl)benzamide] the IC50 was less than 1 nM. Work on `Cc1ccc(CN)cc1C(=O)N[C@H](C)c1cc(-n2ccnn2)nc2ccccc12` [Example 23, (R)—N-(1-(2-(1H-1,2,3-triazol-1-yl)quinolin-4-yl)ethyl)-5-(aminomethyl)-2-methylbenzamide] yielded an IC50 of 293 nM. Compound `Cc1ccc(N2CC3CC2CN3)cc1C(=O)N[C@H](C)c1cc(-c2cnn(C)c2)nc2ccccc12` (some centres unmarked) [Example 255] has an IC50 of 19 nM. For `Cc1ccc(CN)cc1C(=O)NC(C)c1cc(N2CCCC2=O)nc2ccccc12` (centres unmarked) [Example 34, 5-(aminomethyl)-2-methyl-N-(1-(2-(2-oxopyrrolidin-1-yl)quinolin-4-yl)ethyl)benzamide], the IC50 was 1450 nM. With `Cc1cc(C(C)(C)NC(=O)c2ncc[nH]2)ccc1C(=O)N[C@H](C)c1cc(-c2cnn(C)c2)nc2ccccc12` [Example 215, (R)-N-(2-(3-methyl-4-((1-(2-(1-methyl-1H-pyrazol-4-yl)quinolin-4-yl)ethyl)carbamoyl)phenyl)propan-2-yl)-1H-imidazole-2-carboxamide] the IC50 was 144 nM. `Cc1cc(C(C)OCc2nccn2C)ncc1C(=O)N[C@H](C)c1cc(-c2cnn(C)c2)nc2ccccc12` (stereo partly drawn) [Example 322, 4-methyl-6-(1-((1-methyl-1H-imidazol-2-yl)methoxy)ethyl)-N-((R)-1-(2-(1-methyl-1H-pyrazol-4-yl)quinolin-4-yl)ethyl)nicotinamide] gave an IC50 of 7 nM. `Cc1ccc(CN)cc1C(=O)NC1(c2cc(-c3cnn(C)c3)cc3ccccc23)CC1` [Example 75, 5-(aminomethyl)-2-methyl-N-(1-(3-(1-methyl-1H-pyrazol-4-yl)naphthalen-1-yl)cyclopropyl)benzamide] showed an IC50 of 12 nM. `Cc1ccccc1C(=O)NC(C)c1cc(CCn2cccn2)nc2ccccc12` (stereo in doubt) [Example 157, 2-methyl-N-[(1R)-1-{2-[2-(1H-pyrazol-1-yl)ethyl]-quinolin-4-yl}ethyl]benzamide] was tested, and the IC50 was 2680 nM.
